Experiment: Dentin loss under extreme erosion conditions, composition versus its three ingredients separately (Example 8)
Design: species or system cow
Conditions: 10 cycles: 5 min pre-treatment, 1% citric acid pH 2.3 for 3 min; vs distilled water
Protocol: The protective capacity of a mouthwash formulated with olive oil, trimethylglycine and xylitol in dentin subjected to extreme erosion conditions was analysed, compared to that of aqueous solutions of the three ingredients separately in the same concentrations used in the mouthwash tested. For the evaluation of effects a control was included consisting of distilled water.
Incisive teeth extracted from a cow's jaw were used, which were immersed in a 0.5% thymol solution at room temperature. The teeth were sectioned at the cementum-enamel junction by means of a water-cooled diamond scalpel (Exakt, Norderstedt, Germany), and the crowns and roots were embedded in acrylic resin cylinders (Paladur, Heraeus Kulzer, Wehrheim, Germany). Radicular cementum was completely eliminated. […]
Dentin loss was quantified performing profile or profilometric measurements (Mahr Perthometer, Göttingen, Germany). […] After the experiment the adhesive tapes were removed and the samples were analysed again. The average depth of the eroded surfaces was thus calculated with respect to basic surface profiles by means of specific software (Mahr Perthometer Concept 7.0, Mahr, Göttingen, Germany).
Dentin loss was calculated (mean±standard deviation) for each group and statistically analysed by Student's t test followed by Bonferroni's t test for multiple comparisons (Statistica 6.0, Statsoft, Tulsa, USA).

Row | SMILES | protective effect on dentin against erosion
1 | OC[C@@H](O)[C@H](O)[C@@H](O)CO [1% xylitol solution, xylitol] | did not demonstrate any protective effect
2 | C[N+](C)(C)CC(=O)[O-] [2% trimethylglycine solution, trimethylglycine] | did not demonstrate any protective effect

From patent US20080241080A1, “COMPOSITION FOR TREATING XEROSTOMIA OR DRY MOUTH” (BIOCOSMETICS, S.L., priority 2007, published 2008)
